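Grown in 96-well plates, cells were treated for 48 hours with each compound at five concentrations. Insufficient inhibition: endpoint recorded as highest concentration tested. TGI marks complete inhibition of growth.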
How the values were obtained:
Assay in all cases: NCI tumour cell line growth inhibition, 48 h
CCRF-CEM leukemia = tested on: CCRF-CEM leukemia
K-562 leukemia = tested on: K-562 leukemia
NCI-H460 lung = tested on: NCI-H460 lung
CAKI-1 renal = tested on: CAKI-1 renal
TK-10 renal = tested on: TK-10 renal
MDA-MB-435 = tested on: MDA-MB-435
SN12C renal = tested on: SN12C renal
COLO 205 colon = tested on: COLO 205 colon
SF-295 CNS = tested on: SF-295 CNS
DU-145 prostate = tested on: DU-145 prostate
ACHN renal = tested on: ACHN renal
RXF 393 renal = tested on: RXF 393 renal
SK-MEL-2 melanoma = tested on: SK-MEL-2 melanoma
OVCAR-3 ovarian = tested on: OVCAR-3 ovarian
SNB-75 CNS = tested on: SNB-75 CNS
HOP-92 NSCLC = tested on: HOP-92 NSCLC
BT-549 breast = tested on: BT-549 breast

| Compound | TGI (CCRF-CEM leukemia) [µM] | TGI (K-562 leukemia) [µM] | TGI (NCI-H460 lung) [µM] | TGI (CAKI-1 renal) [µM] | TGI (TK-10 renal) [µM] | TGI (MDA-MB-435) [µM] | TGI (SN12C renal) [µM] | TGI (COLO 205 colon) [µM] | TGI (SF-295 CNS) [µM] | TGI (DU-145 prostate) [µM] | TGI (ACHN renal) [µM] | TGI (RXF 393 renal) [µM] | TGI (SK-MEL-2 melanoma) [µM] | TGI (OVCAR-3 ovarian) [µM] | TGI (SNB-75 CNS) [µM] | TGI (HOP-92 NSCLC) [µM] | TGI (BT-549 breast) [µM] |
| --- | --- | --- | --- | --- | --- | --- | --- | --- | --- | --- | --- | --- | --- | --- | --- | --- | --- |
| CN(C)CCNC(=O)Cn1cnc2cccc([N+](=O)[O-])c2c1=O | > 100 | > 100 | > 100 | > 100 | > 100 | > 100 | > 100 | > 100 | > 100 | > 100 | > 100 | > 100 | > 100 | > 100 | – | – | – |
| COC1(OC)C=CC2C1C1C=CC2C1(OC)OC (configuration not stated) | > 100 | > 100 | > 100 | > 100 | > 100 | > 100 | > 100 | > 100 | > 100 | > 100 | > 100 | > 100 | > 100 | > 100 | > 100 | > 100 | – |
| CCOc1ccccc1-c1nc2c(s1)C(=O)c1ccccc1C2=O | – | 32.4 | 39.2 | 26.7 | 34.4 | 4.31 | > 100 | 58.9 | 25.1 | 36.5 | 29.2 | 31.5 | 30 | 8.01 | 25.6 | 25 | – |
| O/N=C1/CC2(N3CCOCC3)C3CC/C(=N\O)C2CC1(Cc1ccccc1)C3 (configuration not stated) | > 100 | > 100 | > 100 | > 100 | – | > 100 | > 100 | > 100 | > 100 | > 100 | > 100 | > 100 | > 100 | > 100 | 96 | – | – |
| C=C(C(=C)N1N=NC2C3CCC(C3)C21)N1N=NC2C3CCC(C3)C21 (configuration not stated) | > 100 | > 100 | > 100 | > 100 | > 100 | – | > 100 | > 100 | > 100 | – | > 100 | > 100 | – | > 100 | > 100 | > 100 | – |
| CC(C)C[C@H](NC(=O)[C@H](Cc1ccc(F)cc1)NC(=O)c1ccccn1)B(O)O | > 100 | > 100 | 0.0504 | < 0.0124 | 0.0193 | < 0.01 | < 0.01 | 1.12 | < 0.01 | – | 0.0465 | < 0.01 | < 0.01 | < 0.01 | < 0.01 | < 0.01 | < 0.01 |
| C=CCN1/C(=C2\SC(=S)N(c3ccc(C)cc3)C2=O)Sc2c1nc[nH]c2=O | > 100 | > 100 | > 100 | > 100 | > 100 | – | > 100 | > 100 | > 100 | – | > 100 | > 100 | > 100 | > 100 | – | > 100 | – |
| COC(=O)C(Br)C1CCc2ccccc21 (configuration not stated) | > 100 | > 100 | > 100 | > 100 | > 100 | – | > 100 | > 100 | > 100 | – | > 100 | – | – | > 100 | – | > 100 | – |
| CCN(CCCl)c1cc(CN(C)C)cc(NC(=O)C23CCC(C(=O)Nc4cc(CN(C)C)cc(N(CC)CCCl)c4)(CC2)CC3)c1 | 1.17 | 4.73 | 2.17 | 23.2 | 21.2 | 3.08 | 2.39 | 2.81 | 11.9 | 11.9 | 9.22 | 3.18 | 4.35 | – | 8.33 | 5.06 | – |
| CN(C(=O)C1=CCC2(CC1)OCCO2)c1ccccc1I | > 100 | > 100 | > 100 | > 100 | > 100 | > 100 | > 100 | > 100 | > 100 | > 100 | > 100 | – | > 100 | > 100 | > 100 | > 100 | – |
| O=C1c2c(ccc3c2CCC3)CC12Cc1ccccc1C2 | 46.1 | 79.3 | 96.1 | 43.6 | > 100 | > 100 | > 100 | 53.1 | > 100 | > 100 | > 100 | 40.4 | 47.6 | 82.2 | 91.1 | 41 | – |
| Cc1ccc(C(=O)/C=C/c2cccc([N+](=O)[O-])c2)cc1 | > 89.9 | 66.5 | > 100 | > 100 | > 100 | – | > 100 | > 55.9 | > 100 | – | > 100 | > 74.8 | > 100 | > 100 | > 92.9 | > 100 | – |

— PubChem BioAssay (NCI)
